The values below come from US11866516B2, “Isolated peptide, anti-cancer medicinal composition including the same and method of specifically reducing or inhibiting activities of cancer cells using the same” (National Sun Yat-Sen Univesity, priority 2020, dated 2024).

No end group written: not given here.

The target of one assay is T1, recombinant ATG4A (Homo sapiens, UniProt Q8WYN0).
T1 sequence (Q8WYN0 1-398): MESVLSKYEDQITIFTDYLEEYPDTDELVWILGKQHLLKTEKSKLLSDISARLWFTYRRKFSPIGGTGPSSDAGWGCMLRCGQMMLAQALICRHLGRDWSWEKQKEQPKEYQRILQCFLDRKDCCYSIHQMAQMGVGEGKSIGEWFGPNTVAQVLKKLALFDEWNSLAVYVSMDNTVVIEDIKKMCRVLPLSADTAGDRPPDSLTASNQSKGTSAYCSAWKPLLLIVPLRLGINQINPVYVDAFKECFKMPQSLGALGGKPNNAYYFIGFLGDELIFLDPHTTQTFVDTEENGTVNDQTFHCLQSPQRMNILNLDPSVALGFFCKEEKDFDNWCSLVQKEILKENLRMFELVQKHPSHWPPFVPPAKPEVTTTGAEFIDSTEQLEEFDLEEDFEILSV
As to the kind of experiment: ATG4 reporter GBRL2-PLA2 assay with recombinant ATG4A. Type of assay: biochemical. As to conditions: for inhibitory effect on ATG4A proteolytic activity: recombinant ATG4A 5 nM, 100 nM GBRL2-PLA2, EDTA as positive control. As to the method:
(§1) FIGS. 2A to 2C illustrate the inhibitory effects of GBRL2-derived peptides on ATG4 proteolytic activity according to several embodiments of the present invention. FIGS. 2A and 2B illustrate three α-helical peptides (H1, H2 and H3) derived from GBRL2, which were 2-fold serial titrated and mixed with recombinant ATG4A (5 nM) (FIG. 2A) or recombinant ATG4B (0.1 nM) (FIG. 2B) in the presence of 100 nM reporter GBRL2-PLA2, a general substrate for ATG4 members, to evaluate the inhibitory effect of peptides on ATG4A and ATG4B. The IC50 of peptides on ATG4B and ATG4A was analyzed by Prism 5.0. FIG. 2C illustrates the inhibitory activity of EDTA on proteolysis of ATG4 as a positive control in the upper panel. In the lower panel of FIG. 2C, the H2 peptide was further counter assayed with 0.5 nM caspase-3 and 100 μM DEVD-AFC to validate its specificity.
(§2) The reporter assay was modified from a previous report. Briefly, recombinant ATG4A or ATG4B was mixed with 100 nM GBRL2-PLA2 fusion protein in 20 μL PLA2 reaction buffer containing 20 mM Tris-HCl, pH 8.0, 2 mM CaCl2) and 1 mM DTT, and 20 μM 2-(6-(7-nitrobenz-2-oxa-1,3-diazol-4-yl)amino)hexanoyl-1-hexadecanoyl-sn-glycero-3-phosphocholine (NBD-C6-HPC) (Invitrogen, N-3786). Fluorescence intensity was measured within 30-60 minutes using Fluoroskan Ascent FL Reader (Thermo Fisher Scientific) at room temperature with excitation and emission wavelength of 485 nm and 530 nm, respectively. The IC50 of peptides on GBRL2-PLA2 was determined using nonlinear regression fitting of a series of progress curves.

Assay [1] has as its target T2, ATG4B (Homo sapiens, UniProt Q9Y4P1).
T2 sequence (Q9Y4P1 1-393): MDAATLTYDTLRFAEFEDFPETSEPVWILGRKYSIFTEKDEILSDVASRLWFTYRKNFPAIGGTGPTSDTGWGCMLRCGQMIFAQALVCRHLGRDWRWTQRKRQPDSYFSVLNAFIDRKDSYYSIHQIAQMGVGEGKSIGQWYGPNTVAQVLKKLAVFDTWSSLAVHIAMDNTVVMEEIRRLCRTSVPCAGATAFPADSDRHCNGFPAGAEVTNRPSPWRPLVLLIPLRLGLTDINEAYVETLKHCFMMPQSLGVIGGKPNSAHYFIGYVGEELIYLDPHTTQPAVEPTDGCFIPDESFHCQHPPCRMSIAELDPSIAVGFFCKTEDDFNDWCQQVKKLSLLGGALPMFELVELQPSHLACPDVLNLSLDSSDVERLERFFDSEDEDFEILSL
As to the kind of experiment: ATG4 reporter GBRL2-PLA2 assay with recombinant ATG4B. Type of assay: biochemical. As to conditions: for inhibitory effect on ATG4B proteolytic activity: recombinant ATG4B 0.1 nM, 100 nM GBRL2-PLA2, EDTA as positive control. The method, then:
as §1, §2

Another assay addresses T3, caspase-3 (Homo sapiens, UniProt P42574).
T3 sequence (P42574 29-175 limits assumed): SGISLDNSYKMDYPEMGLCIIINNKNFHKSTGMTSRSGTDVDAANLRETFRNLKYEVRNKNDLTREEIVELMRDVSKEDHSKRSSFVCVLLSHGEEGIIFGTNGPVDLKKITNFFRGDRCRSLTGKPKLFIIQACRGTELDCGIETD
T3 sequence (P42574 176-277 limits assumed): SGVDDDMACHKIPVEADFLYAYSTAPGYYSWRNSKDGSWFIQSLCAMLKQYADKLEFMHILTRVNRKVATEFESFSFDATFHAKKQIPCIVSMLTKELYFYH
As to the kind of experiment: caspase-3 counter assay with DEVD-AFC. Type of assay: biochemical. As to conditions: 0.5 nM caspase-3, 100 μM DEVD-AFC. The method, then: as §1

Assay [2] addresses T2, ATG4B. As to the kind of experiment: ATG4B cleavage of chimeric GBRL2 substrate (N-terminal C-myc tag, C-terminal S-tag). Type of assay: biochemical. From the text: FIGS. 3A to 3C illustrate the effects of peptides on cellular ATG4 proteolysis and autophagic flux according to several embodiments of the present invention. FIG. 3A depicts H2 peptides derived from different ATG4 substrates, including MAP1LC3B, MAP1LC3C and GBR, GBRL2 were mixed with chimeric GBRL2 containing N-terminal C-myc tag and C-terminal S-tag. The S-tag GBRL2 in the upper panel and ratios of non-cleaved/cleaved Myc-tag GBRL2 in the lower panel are used to evaluate the inhibitory effects of the H2 peptides. FIG. 3B depicts human glioblastoma H4 cells and colorectal cancer HCT116 cells both treated with 10 μM GBRL2 H2 peptide alone (orange) or TAT peptide alone (red) or GBRL2 H2 peptide conjugated with TAT peptide (green) for 6 hours and analyzed with flow cytometer. […] The luciferase activity is measured to determine the inhibitory effects on cellular ATG4 proteolysis.
Further, H2 helical peptides from different ATG4 substrates were tested for ATG4B activity with GABARAL2 chimeric substrates, which contained N-terminal C-myc tag and C-terminal S-tag (FIG. 3A). Compared to the controls, the remaining S-tag and the ratio of full length C-myc tagged GBRL2/cleaved C-myc tagged GBRL2 levels were quantified to determine the inhibitory effects of peptides on ATG4B proteolytic activity toward GBRL2. […]

In another assay the test system is cellular ATG4. The assay is described as follows: ATG4 cleavable luciferase assay in cells. The class given is cell-based, human. As to conditions: HCT116 cells expressing ATG4 cleavable luciferase, 6 hours, ATG4B silencer as positive control. From the text:
FIGS. 3A to 3C illustrate the effects of peptides on cellular ATG4 proteolysis and autophagic flux according to several embodiments of the present invention. FIG. 3A depicts H2 peptides derived from different ATG4 substrates, including MAP1LC3B, MAP1LC3C and GBR, GBRL2 were mixed with chimeric GBRL2 containing N-terminal C-myc tag and C-terminal S-tag. The S-tag GBRL2 in the upper panel and ratios of non-cleaved/cleaved Myc-tag GBRL2 in the lower panel are used to evaluate the inhibitory effects of the H2 peptides. FIG. 3B depicts human glioblastoma H4 cells and colorectal cancer HCT116 cells both treated with 10 μM GBRL2 H2 peptide alone (orange) or TAT peptide alone (red) or GBRL2 H2 peptide conjugated with TAT peptide (green) for 6 hours and analyzed with flow cytometer. FIG. 3C depicts the HCT116 cells expressing ATG4 cleavable luciferase treated with GBRL2 H2 peptide for 6 hours. The luciferase activity is measured to determine the inhibitory effects on cellular ATG4 proteolysis.
The plasmid MAP1LC3 wt-Luc or MAP1LC3 G120A-Luc (as a normalization control) was transfected into HEK293T (2000 cells/40 μL) seeded in 384-well white plates for overnight. The cells were treated with ATG4 inhibitors for 8 hours or 16 hours, followed by adding 200 μM D-luciferin (Promega) into each well to monitor the luciferase activity to reflect ATG4 activity in cells. […]

In assay [3] the test system is H4 cells. As to the kind of experiment: cell viability, H4 cells. Type of assay: cell-based, human. As to conditions: data not shown. As to the method: (§3) Since ATG4 might be required for cancer cell viability and metastatic characteristics, such as migration and invasion, the H4 cells and HCT116 cells were treated with peptides to determine the short- and long-term effects of peptide on cancer cells (FIGS. 4A to 4B).

Assay [4] concerns HCT116 cells. As to the kind of experiment: cell viability, HCT116 cells. As to conditions: data not shown. Type of assay: cell-based, human. The method, then:
as §3

Assay [5] deals with H4 cells. The assay is described as follows: propidium iodide (PI) uptake, H4 cells. The class given is cell-based, human. As to conditions: data not shown. As to the method: as §3
Assay [6] has as its system HCT116 cells. As to the kind of experiment: propidium iodide (PI) uptake, HCT116 cells. The class given is cell-based, human. As to conditions: data not shown. As to the method:
as §3

Assay [7] concerns H4 cells. As to the kind of experiment: clonogenic assay, H4 cells. Type of assay: cell-based, human. As to conditions: peptide 5 μM, long-term treatment. The method, then: (§4) FIGS. 4A and 4B depict the cytotoxic effects of peptide (5 μM) in H4 cells (FIG. 4A) and HCT116 cells (FIG. 4B) further confirmed by clonogenic assay according to several embodiments of the present invention.
as §3

In assay [8] the test system is HCT116 cells. The assay is described as follows: clonogenic assay, HCT116 cells. The class given is cell-based, human. As to conditions: peptide 5 μM, long-term treatment. The method, then:
as §4, §3

The test system of assay [9] is human glioblastoma H4 cells. As to the kind of experiment: cell migration assay, H4 cells. Type of assay: cell-based. Conditions: TAT-GBRL2 at higher dose (20 μM), data not shown. As to the method:
(§5) Besides the role of ATG4 in cancer cell survival, ATG4 plays a crucial role in cancer metastasis. Human glioblastoma H4 cells and colorectal cancer HCT116 cells were treated with the peptides for the cell migration assay.

The subject of assay [10] is colorectal cancer HCT116 cells. The assay is described as follows: cell migration assay, HCT116 cells. The class given is cell-based, human. Conditions: TAT-GBRL2 at higher dose (20 μM), data not shown. As to the method: as §5
Assay [11] concerns HCT116 cells. The assay is described as follows: invasion through Matrigel-coated Transwell filters. Type of assay: cell-based, human.
Description: FIGS. 5A to 5B illustrate the effects of GBRL2 peptides on cancer cell migration and invasion according to several embodiments of the present invention. FIG. 5A depicts the invasion of HCT116 cells examined with Matrigel-coated Transwell filters in the presence or absence of peptides, and the cell invasion results are quantified with ImageJ software. FIG. 5B depicts the quantified results for invasion expressed as the mean±SEM. *p<0.05; **p<0.01.
as §5

With “H3: α-helical peptide derived from GBRL2, MGQLYEKE, SEQ ID NO:12 (Ac-MGQLYEKE-NH2)”, the “inhibitory effect on ATG4A proteolytic activity” value with recombinant ATG4A was “showed inhibitory effects”. The “inhibitory effect on ATG4B proteolytic activity” value in the assay with ATG4B [1] is reported as “showed inhibitory effects”.
As to “H1: α-helical peptide derived from GBRL2, LEHRCVESAKIRAK, SEQ ID NO:11 (Ac-LEHRCVESAKIRAK-NH2)”, the “inhibitory effect on ATG4A proteolytic activity” value with recombinant ATG4A is listed as “showed inhibitory effects”. Further, the “inhibitory effect on ATG4B proteolytic activity” value with ATG4B [1] is on record as “showed inhibitory effects”.
Consider “α-helix 2 peptide derived from GBRL2 (GABARAPL2), VAQFMWIIRKR, SEQ ID NO:1 (VAQFMWIIRKR-NH2; not fully specified (N-terminus))”, for which the “IC50 on ATG4A, rank among H1, H2, H3” value with recombinant ATG4A (GBRL2-PLA2 reporter assay) is listed as “lowest IC50”. Also, in the assay with recombinant ATG4A, the “inhibitory effect on ATG4A proteolytic activity” value is on record as “showed inhibitory effects”. In addition, in the assay with ATG4B [1] (GBRL2-PLA2 reporter assay), the “IC50 on ATG4B, rank among H1, H2, H3” value was “lowest IC50”. The “inhibitory effect on ATG4B proteolytic activity” value with ATG4B [1] is given as “showed inhibitory effects”. Besides, the “effect on activity of caspase-3” value with caspase-3 is given as “no effects”. Further, the “relative strength of inhibition on ATG4B among H2 peptides” value in the assay with ATG4B [2] (compared with H2 peptides of other ATG4 substrates) was “strongest inhibition”. For the same substance, the “inhibition of ATG4B cleavage activity toward GBRL2” value with ATG4B [2] (remaining S-tag and ratio full length/cleaved C-myc tagged GBRL2) was “inhibited ATG4B cleavage activity in dose dependent manner”. Besides, the “cellular luciferase activity (cellular ATG4 proteolysis)” value in the assay with cellular ATG4 is on record as “elevated cellular luciferase activity”. Besides, the cell viability result in the assay with H4 cells [3] and with HCT116 cells [4] was “no or little effects” each time. For the same substance, the PI positive proportion result with H4 cells [5] and with HCT116 cells [6] was “slightly increased PI positive cells” throughout. Also, the colony formation result with H4 cells [7] and with HCT116 cells [8] was “reduced colony formation” each time. For the same substance, the cell migration entry in assay [9] and in [10] was “not altered” throughout. In the assay with HCT116 cells [11], the “invaded HCT116 cells” value is “significantly decreased the invaded HCT116 cells”.
Regarding “TAT: Tat penetration domain, HIV-1 TAT basic domain, YGRKKRRQRRR, SEQ ID NO:2; control peptide (Ac-YGRKKRRQRRR-NH2) [reference compound]”, the cell viability entry in the assay with H4 cells [3] and in the assay on HCT116 cells [4] was “no or little effects” each time. Further, the PI positive proportion entry in the assay on H4 cells [5] and with HCT116 cells [6] was “no effects on PI uptake” each time. Moreover, the cell migration result in assay [9] and in assay [10] was “not altered” throughout.
